We go through 6 molecules from patent US10583111B2, “Method for preventing or treating diseases associated with the inhibition of EGFR” (priority 2017, dated 2020).

Assay [1] relates to human foreskin fibroblasts (HFF). Briefly: Proliferative toxicity of EGFR inhibitor on HFF and ameliorating effect of nitric oxide releasing agent (CCK-8). The format is cell-based. Conditions: one merged result for Erlotinib 10 μM, Afatinib 5 μM, Osimertinib 20 μM, agent 200 μM, 48 hrs.
Protocol: The cultured human foreskin fibroblasts (HFF) were digested, counted, and seeded to a 96-well plate with 5000-10000 cells per well. After the cells were attached, the supernatant was discarded. The wells were divided to the blank control group, the EGFR inhibitor group, the EGFR inhibitor+nitric oxide releasing agent group and blank solvent control group. EGFR inhibitor group: 100 μL of the EGFR inhibitor solution was added (the final concentration was listed in Table 6, the EGFR inhibitor solutionare DMSO solution); the EGFR inhibitor+nitric oxide releasing agent group: the EGFR inhibitor solution and the nitric oxide releasing agent solution were added (the final concentrations of the EGFR inhibitor and the nitric oxide releasing agent were listed in Table 6, and depending on the solubility of the nitric oxide releasing agents, the nitric oxide releasing agent solution was ethanol solution or aqueous solution); the blank control group: except the normal replacement of medium, no additional solution was added; a plurality of blank solvent control group: an equal volume of the same type of solvent as the corresponding EGFR inhibitor group or the EGFR inhibitor+nitric oxide releasing agent group was added. […] After additional 48 hrs of culture, the survival rate of cells was determined by Cell Counting Kit-8 (CCK-8) assay kit (C0037, Shanghai Beyotime Biotechnology Inc., Beyotime Biotechnology), to calculate the proliferative toxicity of the EGFR inhibitor to cells and the ameliorating effect of the nitric oxide releasing agent to the proliferative toxicity. GraphPad Prism 6.0 Software and t-test were used to carry out a statistic analysis of the results and plot a graph.
Another assay concerns skin cells HaCaT. As to the kind of experiment: Proliferative toxicity of EGFR inhibitor on skin cells HaCaT and ameliorating effect of nitric oxide releasing agents (CCK-8). It counts as cell-based. Conditions: 48 hrs.
In assay [2] the test system is small intestine epithelial cells FHs 74 Int. Briefly: Proliferative toxicity of EGFR inhibitor to small intestine epithelial cell FHs 74 Int and ameliorating effect of nitric oxide releasing agent (CCK-8). It counts as cell-based. Conditions: one merged result for Erlotinib 10 μM, Afatinib 5 μM, Osimertinib 20 μM, agent 200 μM, 48 hrs.
Protocol: The cultured small intestine epithelial cells FHs 74 Int were digested, counted, and seeded to a 96-well plate with 5000-10000 cells per well. After the cells were attached, the supernatant was discarded. The wells were divided to the blank control group, the EGFR inhibitor group, the EGFR inhibitor+nitric oxide releasing agent group and blank solvent control group.
EGFR inhibitor group: 100 μL of the EGFR inhibitor solution was added (the final concentration was listed in Table 3, all the EGFR inhibitor solution are DMSO solution); the EGFR inhibitor+nitric oxide releasing agent group: the EGFR inhibitor solution and the nitric oxide releasing agent solution were added (the final concentrations of the EGFR inhibitor and the nitric oxide releasing agent were listed in Table 3, and depending on the solubility of the nitric oxide releasing agents, the nitric oxide releasing agent solution was ethanol solution or aqueous solution); the blank control group: except the normal replacement of medium, no additional solution was added; a plurality of blank solvent control group: an equal volume of the same type of solvent as the corresponding EGFR inhibitor group or the EGFR inhibitor+nitric oxide releasing agent group was added. […] After additional 48 hrs of culture, the survival rate of cells was determined by Cell Counting Kit-8 (CCK-8) assay kit (C0037, Shanghai Beyotime Biotechnology Inc., Beyotime Biotechnology), to calculate the proliferative toxicity of the EGFR inhibitor to cells and the ameliorating effect of the nitric oxide releasing agent to the proliferative toxicity. GraphPad Prism 6.0 Software and t-test were used to carry out a statistic analysis of the results and plot a graph.
Assay [3] has as its system human umbilical vein endothelial cells (HUVEC). As to the kind of experiment: Proliferative toxicity of EGFR inhibitor on HUVEC and ameliorating effect of nitric oxide releasing agent (CCK-8). It counts as cell-based. Conditions: 48 hrs. On the procedure: The cultured human umbilical vein endothelial cells (HUVECs) were digested, counted, and seeded to a 96-well plate with 5000-10000 cells per well. After the cells were attached, the supernatant was discarded. The wells were divided to the blank control group, the EGFR inhibitor group, the EGFR inhibitor+nitric oxide releasing agent group and blank solvent control group.
EGFR inhibitor group: 100 μL of the EGFR inhibitor solution was added (the final concentration was listed in Table 5, the EGFR inhibitor solution are DMSO solution); the EGFR inhibitor+nitric oxide releasing agent group: the EGFR inhibitor solution and the nitric oxide releasing agent solution were added (the final concentrations of the EGFR inhibitor and the nitric oxide releasing agent were listed in Table 5, and depending on the solubility of the nitric oxide releasing agents, the nitric oxide releasing agent solution was ethanol solution or aqueous solution); the blank control group: except the normal replacement of medium, no additional solution was added; a plurality of blank solvent control group: an equal volume of the same type of solvent solution as the corresponding EGFR inhibitor group or the EGFR inhibitor+nitric oxide releasing agent group was added. The blank solvent control group was used for data correction to eliminate the effect of solvent to the result in the EGFR inhibitor group and the EGFR inhibitor+nitric oxide releasing agent group. After additional 48 hrs of culture, the survival rate of cells was determined by Cell Counting Kit-8 (CCK-8) assay kit (C0037, Shanghai Beyotime Biotechnology Inc., Beyotime Biotechnology), to calculate the proliferative toxicity of the EGFR inhibitor to cells and the ameliorating effect of the nitric oxide releasing agent to the proliferative toxicity. GraphPad Prism 6.0 Software and t-test were used to carry out a statistic analysis of the results and plot a graph. […]

Assay [4] has as its system Human Oral Keratinocytes (HOK). Briefly: Proliferative toxicity of EGFR inhibitor on Human Oral Keratinocytes (HOK) and ameliorating effect of nitric oxide releasing agent (CCK-8). The format is cell-based. Conditions: one merged result for Erlotinib 10 μM, Afatinib 5 μM, Osimertinib 20 μM, agent 200 μM, 48 hrs.
Protocol: The cultured Human Oral Keratinocytes (HOK) were digested, counted, and seeded to a 96-well plate with 5000-10000 cells per well. After the cells were attached, the supernatant was discarded. The wells were divided to the blank control group, the EGFR inhibitor group, the EGFR inhibitor+nitric oxide releasing agent group and blank solvent control group. EGFR inhibitor group: 100 μL of the EGFR inhibitor solution was added (the final concentration was listed in Table 4, all the EGFR inhibitor solution that are DMSO solution); the EGFR inhibitor+nitric oxide releasing agent group: the EGFR inhibitor solution and the nitric oxide releasing agent solution were added (the final concentrations of the EGFR inhibitor and the nitric oxide releasing agent were listed in Table 4, and depending on the solubility of the nitric oxide releasing agents, the nitric oxide releasing agent solution was ethanol solution or aqueous solution); the blank control group: except the normal replacement of medium, no additional solution was added; a plurality of blank solvent control group: an equal volume of the same type of solvent as the corresponding EGFR inhibitor group or the EGFR inhibitor+nitric oxide releasing agent group was added. […] After additional 48 hrs of culture, the survival rate of cells was determined by Cell Counting Kit-8 (CCK-8) assay kit (C0037, Shanghai Beyotime Biotechnology Inc., Beyotime Biotechnology), to calculate the proliferative toxicity of the EGFR inhibitor to cells and the ameliorating effect of the nitric oxide releasing agent to the proliferative toxicity. GraphPad Prism 6.0 Software and t-test were used to carry out a statistic analysis of the results and plot a graph.
For assay [5], the system named is intracellular NO level in HUVEC. Briefly: Effect of the EGFR inhibitor on the intracellular NO levels, HUVEC. Conditions: 20 μM, 12-24 hrs, cell lysate. It counts as cell-based, human. The method, then:
(§1) The cultured HaCaT, HUVEC and hMSC were respectively digested, counted, and seeded into 6-well plates with 100,000-600,000 cells per well. After the cells were attached, the supernatant was discarded, and 1.5 mL of the EGFR inhibitor solution diluted to the final concentration as shown in Table 7 was added into the wells of the 6-well plates, wherein no additional solution was added to the blank control group, except the normal replacement of basic medium. After 12-24 hrs of addition of the EGFR inhibitor, the supernatant was discarded, while 100 μL of a cell lysis solution was added to the cells in the 6-well plates (specifically for the detection of nitric oxide, 53090, Beyotime Inc.). After 30 s of lysis, 50 μL cell lysis solution was taken. The NO level in the cell lysis solution was detected by using NO assay kit (S0021, Beyotime Inc.). GraphPad Prism 6.0 Software and t-test were used to carry out a statistic analysis of the results and plot a graph.

For assay [6], the system named is intracellular NO level in hMSC. As to the kind of experiment: Effect of the EGFR inhibitor on the intracellular NO levels, hMSC. Conditions: hMSCs; 20 μM; 12-24 hrs; cell lysate. It counts as cell-based. The method, then: as §1
Assay [7] concerns intracellular NO level in HaCaT. As to the kind of experiment: Effect of the EGFR inhibitor on the intracellular NO levels, HaCaT. Conditions: 20 μM, 12-24 hrs, cell lysate. The format is cell-based. The method, then:
as §1

The mark [8] stands for this setting: Afatinib 5 μM + nitric oxide releasing agent 200 μM.
[9] abbreviates: Cetuximab 100-200 μg/mL + nitric oxide releasing agent 200 μM.
Where [10] appears, read: Erlotinib 10 μM + nitric oxide releasing agent 200 μM.
The mark [11] stands for this setting: Osimertinib 20 μM + nitric oxide releasing agent 200 μM.

Protocol for skin cells HaCaT: The cultured skin cell HaCaT were digested, counted, and seeded in a 96-well plate with 5000-10000 cells per well. After the cells were attached, the supernatant was discarded. The wells were divided to the blank control group, the EGFR inhibitor group, the EGFR inhibitor+nitric oxide releasing agent group and the blank solvent control group. The EGFR inhibitor group: 100 μL of the EGFR inhibitor solution was added (the final concentration was shown in Table 2; Cetuximab was in an aqueous solution, besides which each of other EGFR inhibitors were in a solution containing DMSO); the EGFR inhibitor+nitric oxide releasing agent group: the EGFR inhibitor solution and the nitric oxide releasing agent solution were added (the final concentration of the EGFR inhibitor and nitric oxide releasing agent were shown in Table 2, and depending on the solubility of the nitric oxide releasing agent, the nitric oxide releasing agent solution was an ethanol solution or an aqueous solution); the blank control group: except the normal replacement of the medium, no additional solution was added; a plurality of blank solvent control groups: an equal volume of the same type of solvent as the corresponding EGFR inhibitor group or the EGFR inhibitor+nitric oxide releasing agent was added. […] After additional culture for 48 hrs, the survival rate of cells was measured by Cell Counting Kit-8 (CCK-8) assay kit (C0037, purchased from Shanghai Beyotime Biotechnology Inc.) to calculate the proliferative toxicity of the EGFR inhibitor to cells and the ameliorating effect of the nitric oxide releasing agent to the proliferative toxicity.

With `O=[N+]([O-])OCC(CO[N+](=O)[O-])O[N+](=O)[O-]` [Nitroglycerin, nitroglycerin], the “Cell Survival Rate: percentage of viable cells increased vs EGFR inhibitor group” value is reported as 30-90% in assay [1]; “by 85-95%” with skin cells HaCaT (setting [8]); “by 55-65%” in the assay with skin cells HaCaT (Canertinib 10 μM + nitric oxide releasing agent 200 μM); “by 35-45%” with skin cells HaCaT (setting [9]); “by 65-75%” with skin cells HaCaT (EAI045 20 μM + nitric oxide releasing agent 200 μM); “by 65-75%” with skin cells HaCaT (setting [10]). The “Cell Survival Rate: percentage of viable cells increased vs EGFR inhibitor group” value is on record as “by 65-75%” in the assay on skin cells HaCaT (Gefitinib 10 μM + nitric oxide releasing agent 200 μM); “by 65-75%” in the assay on skin cells HaCaT (Icotinib 10 μM + nitric oxide releasing agent 200 μM); “by 55-65%” in the assay on skin cells HaCaT (Lapatinib 10 μM + nitric oxide releasing agent 200 μM); “by 55-65%” in the assay on skin cells HaCaT (Nazartinib 10 μM + nitric oxide releasing agent 200 μM); “by 65-75%” with skin cells HaCaT (Neratinib 10 μM + nitric oxide releasing agent 200 μM); “by 35-45%” in the assay with skin cells HaCaT (Olmutinib 10 μM + nitric oxide releasing agent 200 μM). Moreover, the “Cell Survival Rate: percentage of viable cells increased vs EGFR inhibitor group” value in the assay with skin cells HaCaT (setting [11]) was “by 35-45%”; in the assay with skin cells HaCaT (Poziotinib 10 μM + nitric oxide releasing agent 200 μM), “by 55-65%”; with skin cells HaCaT (Rociletinib 10 μM + nitric oxide releasing agent 200 μM), “by 65-75%”; in the assay with skin cells HaCaT (Sapitinib 10 μM + nitric oxide releasing agent 200 μM), “by 55-65%”; in the assay on skin cells HaCaT (Vandetanib 10 μM + nitric oxide releasing agent 200 μM), “by 55-65%”; in the assay with skin cells HaCaT (Varlitinib 10 μM + nitric oxide releasing agent 200 μM) it was “by 35-45%”. The “Cell Survival Rate: percentage of viable cells increased vs EGFR inhibitor group” value in assay [2] is recorded as 15%-35%; in assay [3] (Afatinib 5 μM + agent 200 μM), 15-20%; in assay [3] (Erlotinib 10 μM + agent 200 μM), 20-30%; in assay [3] (Osimertinib 20 μM + agent 200 μM), 90-100%; in assay [4], 20-30%.

On to `C#Cc1cccc(Nc2ncnc3cc(OCCOC)c(OCCOC)cc23)c1` [Erlotinib], for which the “NO Level: percentage of NO concentration decreased vs control group” value came to 22% in assay [5], 30% in assay [6] and 28% in assay [7].

On to `CCOC(=O)[N-]c1cn(N2CCOCC2)n[o+]1` [Molsidomine], for which the “Cell Survival Rate: percentage of viable cells increased vs EGFR inhibitor group” value was 20-70% in assay [1]; “by 35-45%” in the assay on skin cells HaCaT (setting [8]); “by 75-85%” with skin cells HaCaT (setting [10]); “by 35-45%” in the assay with skin cells HaCaT (setting [11]); 15%-35% in assay [2]; 20-30% in assay [4].

With `NCCN(CCN)[N+]([O-])=NO` [NOC-18, 3,3-di (aminoethyl)-1-hydroxyl-2-carbonyl-1-triazene], the “Cell Survival Rate: percentage of viable cells increased vs EGFR inhibitor group” value in the assay on skin cells HaCaT (setting [8]) is given as “by 35-45%”; in the assay with skin cells HaCaT (setting [9]), “by 45-55%”; with skin cells HaCaT (setting [10]) it was “by 75-85%”; in the assay with skin cells HaCaT (setting [11]), “by 25-35%”.

On to `O=C(NCCO[N+](=O)[O-])c1cccnc1` [Nicorandil, nicorandil], for which the “Cell Survival Rate: percentage of viable cells increased vs EGFR inhibitor group” value was “by 65-75%” in the assay on skin cells HaCaT (setting [8]), “by 85-95%” in the assay with skin cells HaCaT (setting [10]) and “by 30-40%” with skin cells HaCaT (setting [11]).

Turning to `CC(C)CCON=O` [Isoamyl nitrite, isoamyl nitrite], the “Cell Survival Rate: percentage of viable cells increased vs EGFR inhibitor group” value in assay [1] was 30-80%; with skin cells HaCaT (setting [8]), “by 35-45%”; in the assay on skin cells HaCaT (setting [9]) it was “by 35-45%”; in the assay with skin cells HaCaT (setting [10]), “by 75-85%”; with skin cells HaCaT (setting [11]), “by 35-45%”; in assay [2] it was 25%-35%. Also, the “Cell Survival Rate: percentage of viable cells increased vs EGFR inhibitor group” value in assay [4] is reported as 25-35%.
